Results as given in ChEMBL document CHEMBL1201862, “PubChem BioAssay data set” (2004).
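Method: 48-hour compound exposure of cells in 96-well plates, five concentrations, linear interpolation of endpoints. Here, GI50 denotes the concentration required for 50% inhibition of growth.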 Active and inactive are the calls of the source. Cut-off read from the data, not from the text of the source: active = GI50 up to about 1.1 µM and inactive = higher.

Key:
Test in all cases: inhibition of tumour cell growth, NCI panel, 48 h
HCT-15 = tested on: HCT-15
HCT-116 = tested on: HCT-116
EKVX = tested on: EKVX
786-0 = tested on: 786-0
IGROV-1 = tested on: IGROV-1
RXF 393 = tested on: RXF 393
MDA-MB-435 = tested on: MDA-MB-435
SW-620 = tested on: SW-620
HOP-62 = tested on: HOP-62
HCC 2998 = tested on: HCC 2998
NCI-H522 = tested on: NCI-H522
UO-31 = tested on: UO-31
TK-10 = tested on: TK-10
ACHN = tested on: ACHN
PC-3 = tested on: PC-3
RPMI-8226 = tested on: RPMI-8226
K562 = tested on: K562
SK-MEL-5 = tested on: SK-MEL-5
SK-OV-3 = tested on: SK-OV-3
NCI-H23 = tested on: NCI-H23
CAKI-1 = tested on: CAKI-1
UACC-62 = tested on: UACC-62
OVCAR-8 = tested on: OVCAR-8
KM12 = tested on: KM12
SNB-19 = tested on: SNB-19
SF-268 = tested on: SF-268
U-251 = tested on: U-251
A498 = tested on: A498
MCF7 = tested on: MCF7
BT-549 = tested on: BT-549
NCI/ADR-RES = tested on: NCI/ADR-RES
MDA-N = tested on: MDA-N
MDA-MB-231 = tested on: MDA-MB-231
SK-MEL-28 = tested on: SK-MEL-28
UACC-257 = tested on: UACC-257
DU-145 = tested on: DU-145
A549 = tested on: A549
SK-MEL-2 = tested on: SK-MEL-2
T47D = tested on: T47D
OVCAR-4 = tested on: OVCAR-4
MOLT-4 = tested on: MOLT-4
SNB-75 = tested on: SNB-75
SN12C = tested on: SN12C
CCRF-CEM = tested on: CCRF-CEM
Malme-3M = tested on: Malme-3M
SF-539 = tested on: SF-539
NCI-H460 = tested on: NCI-H460
OVCAR-5 = tested on: OVCAR-5
SR = tested on: SR
LOX IMVI = tested on: LOX IMVI
COLO 205 = tested on: COLO 205
SF-295 = tested on: SF-295
NCI-H226 = tested on: NCI-H226
M14 = tested on: M14
HOP-92 = tested on: HOP-92
HT-29 = tested on: HT-29
OVCAR-3 = tested on: OVCAR-3
HL-60 = tested on: HL-60

SMILES: O=C(NNc1ccc([N+](=O)[O-])cc1[N+](=O)[O-])/C(O)=C\C(=O)c1ccccc1
- GI50 (HCT-15): 16.5 µM
- GI50 (HCT-116): 14.4 µM (inactive)
- GI50 (EKVX): 25.2 µM (inactive)
- GI50 (786-0): 13.2 µM (inactive)
- GI50 (IGROV-1): 17.9 µM (inactive)
- GI50 (RXF 393): 16.3 µM (inactive)
- GI50 (MDA-MB-435): 30.5 µM (inactive)
- GI50 (SW-620): 16.6 µM (inactive)
- GI50 (HOP-62): 16.3 µM (inactive)
- GI50 (HCC 2998): 16.4 µM (inactive)
- GI50 (NCI-H522): 25.6 µM (inactive)
- GI50 (UO-31): 14.3 µM (inactive)
- GI50 (TK-10): 22.4 µM (inactive)
- GI50 (ACHN): 23.1 µM (inactive)
- GI50 (PC-3): 20.3 µM (inactive)
- GI50 (RPMI-8226): 15.3 µM (inactive)
- GI50 (K562): 25.1 µM (inactive)
- GI50 (SK-MEL-5): 20.7 µM (inactive)
- GI50 (SK-OV-3): 18.6 µM (inactive)
- GI50 (NCI-H23): 20 µM (inactive)
- GI50 (CAKI-1): 21.1 µM (inactive)
- GI50 (UACC-62): 15.5 µM (inactive)
- GI50 (OVCAR-8): 18.7 µM (inactive)
- GI50 (KM12): 16.3 µM (inactive)
- GI50 (SNB-19): 25.4 µM (inactive)
- GI50 (SF-268): 17.7 µM (inactive)
- GI50 (U-251): 14.9 µM (inactive)
- GI50 (A498): 28.9 µM (inactive)
- GI50 (MCF7): 29.4 µM (inactive)
- GI50 (BT-549): 22.2 µM (inactive)
- GI50 (NCI/ADR-RES): 16.3 µM (inactive)
- GI50 (MDA-N): 27.9 µM (inactive)
- GI50 (MDA-MB-231): 23.4 µM (inactive)
- GI50 (SK-MEL-28): 23.5 µM (inactive)
- GI50 (UACC-257): 29 µM (inactive)
- GI50 (DU-145): 16.9 µM (inactive)
- GI50 (A549): 17.6 µM (inactive)
- GI50 (SK-MEL-2): 27.1 µM (inactive)
- GI50 (T47D): 15.6 µM (inactive)
- GI50 (OVCAR-4): 22.6 µM (inactive)
- GI50 (MOLT-4): 17.7 µM (inactive)
- GI50 (SNB-75): 12.8 µM (inactive)
- GI50 (SN12C): 16.5 µM (inactive)
- GI50 (CCRF-CEM): 16.9 µM (inactive)
- GI50 (Malme-3M): 30 µM (inactive)
- GI50 (SF-539): 15.4 µM (inactive)
- GI50 (NCI-H460): 19 µM (inactive)
- GI50 (OVCAR-5): 19.7 µM (inactive)
- GI50 (SR): 19.9 µM (inactive)
- GI50 (LOX IMVI): 24.5 µM (inactive)
- GI50 (COLO 205): 18.4 µM (inactive)
- GI50 (SF-295): 15.3 µM (inactive)
- GI50 (NCI-H226): 21.2 µM (inactive)
- GI50 (M14): 14.3 µM (inactive)

SMILES: COc1cc(/C=C2\C(=O)N(c3cc(Cl)ccc3Cl)C(c3ccccc3)S2(=O)=O)cc(OC)c1OC (centres undefined)
- GI50 (HCT-15): 39.4 µM
- GI50 (HCT-116): 38.5 µM (inactive)
- GI50 (EKVX): 29.3 µM (inactive)
- GI50 (786-0): > 100 µM (inactive)
- GI50 (IGROV-1): 28.3 µM (inactive)
- GI50 (RXF 393): > 100 µM (inactive)
- GI50 (MDA-MB-435): 27.7 µM (inactive)
- GI50 (SW-620): 33.7 µM (inactive)
- GI50 (HOP-92): 45.1 µM (inactive)
- GI50 (HOP-62): > 100 µM (inactive)
- GI50 (HCC 2998): > 100 µM (inactive)
- GI50 (NCI-H522): 29.5 µM (inactive)
- GI50 (UO-31): 46.8 µM (inactive)
- GI50 (TK-10): > 100 µM (inactive)
- GI50 (ACHN): > 100 µM (inactive)
- GI50 (PC-3): 55.8 µM (inactive)
- GI50 (RPMI-8226): 45.4 µM (inactive)
- GI50 (HT-29): 81.5 µM (inactive)
- GI50 (K562): 31 µM (inactive)
- GI50 (SK-MEL-5): 57.4 µM (inactive)
- GI50 (SK-OV-3): > 100 µM (inactive)
- GI50 (NCI-H23): 96.4 µM (inactive)
- GI50 (CAKI-1): > 100 µM (inactive)
- GI50 (UACC-62): 37.2 µM (inactive)
- GI50 (OVCAR-8): > 100 µM (inactive)
- GI50 (KM12): 36.6 µM (inactive)
- GI50 (SNB-19): > 100 µM (inactive)
- GI50 (U-251): 86.1 µM (inactive)
- GI50 (A498): > 100 µM (inactive)
- GI50 (MCF7): 27 µM (inactive)
- GI50 (BT-549): 83.2 µM (inactive)
- GI50 (NCI/ADR-RES): 34.1 µM (inactive)
- GI50 (MDA-N): 22.2 µM (inactive)
- GI50 (MDA-MB-231): > 100 µM (inactive)
- GI50 (SK-MEL-28): 63.8 µM (inactive)
- GI50 (UACC-257): > 100 µM (inactive)
- GI50 (DU-145): > 100 µM (inactive)
- GI50 (A549): > 100 µM (inactive)
- GI50 (SK-MEL-2): > 100 µM (inactive)
- GI50 (T47D): 26.1 µM (inactive)
- GI50 (OVCAR-4): 62.1 µM (inactive)
- GI50 (MOLT-4): 25.1 µM (inactive)
- GI50 (SNB-75): 61.1 µM (inactive)
- GI50 (SN12C): 62.1 µM (inactive)
- GI50 (CCRF-CEM): 42.9 µM (inactive)
- GI50 (Malme-3M): 42.9 µM (inactive)
- GI50 (OVCAR-3): 34.8 µM (inactive)
- GI50 (SF-539): 90.6 µM (inactive)
- GI50 (NCI-H460): > 100 µM (inactive)
- GI50 (OVCAR-5): 38.5 µM (inactive)
- GI50 (SR): 31.6 µM (inactive)
- GI50 (HL-60): 19.2 µM (inactive)
- GI50 (LOX IMVI): 55.6 µM (inactive)
- GI50 (COLO 205): > 100 µM (inactive)
- GI50 (SF-295): 51.5 µM (inactive)
- GI50 (NCI-H226): 25.4 µM (inactive)
- GI50 (M14): 40.6 µM (inactive)

SMILES: CSc1ncnc2c1cnn2Cc1cnnn1COCC(O)CO (centres undefined)
- GI50 (HCT-15): > 100 µM
- GI50 (HCT-116): > 100 µM (inactive)
- GI50 (EKVX): > 100 µM (inactive)
- GI50 (786-0): > 100 µM (inactive)
- GI50 (IGROV-1): > 100 µM (inactive)
- GI50 (MDA-MB-435): > 100 µM (inactive)
- GI50 (SW-620): > 100 µM (inactive)
- GI50 (HOP-62): > 100 µM (inactive)
- GI50 (HCC 2998): > 100 µM (inactive)
- GI50 (NCI-H522): 11.1 µM (inactive)
- GI50 (UO-31): > 100 µM (inactive)
- GI50 (TK-10): > 100 µM (inactive)
- GI50 (ACHN): > 100 µM (inactive)
- GI50 (PC-3): > 100 µM (inactive)
- GI50 (RPMI-8226): > 100 µM (inactive)
- GI50 (HT-29): > 100 µM (inactive)
- GI50 (K562): > 100 µM (inactive)
- GI50 (SK-MEL-5): > 100 µM (inactive)
- GI50 (SK-OV-3): > 100 µM (inactive)
- GI50 (NCI-H23): > 100 µM (inactive)
- GI50 (CAKI-1): > 100 µM (inactive)
- GI50 (UACC-62): > 100 µM (inactive)
- GI50 (OVCAR-8): > 100 µM (inactive)
- GI50 (KM12): > 100 µM (inactive)
- GI50 (SNB-19): > 100 µM (inactive)
- GI50 (SF-268): 13.8 µM (inactive)
- GI50 (U-251): > 100 µM (inactive)
- GI50 (A498): > 100 µM (inactive)
- GI50 (MCF7): > 100 µM (inactive)
- GI50 (BT-549): > 100 µM (inactive)
- GI50 (NCI/ADR-RES): > 100 µM (inactive)
- GI50 (MDA-N): > 100 µM (inactive)
- GI50 (MDA-MB-231): > 100 µM (inactive)
- GI50 (SK-MEL-28): > 100 µM (inactive)
- GI50 (UACC-257): > 100 µM (inactive)
- GI50 (DU-145): > 100 µM (inactive)
- GI50 (A549): > 100 µM (inactive)
- GI50 (SK-MEL-2): > 100 µM (inactive)
- GI50 (T47D): > 100 µM (inactive)
- GI50 (OVCAR-4): > 100 µM (inactive)
- GI50 (MOLT-4): > 100 µM (inactive)
- GI50 (SN12C): > 100 µM (inactive)
- GI50 (CCRF-CEM): > 100 µM (inactive)
- GI50 (OVCAR-3): > 100 µM (inactive)
- GI50 (SF-539): > 100 µM (inactive)
- GI50 (OVCAR-5): > 100 µM (inactive)
- GI50 (SR): > 100 µM (inactive)
- GI50 (HL-60): > 100 µM (inactive)
- GI50 (LOX IMVI): > 100 µM (inactive)
- GI50 (COLO 205): > 100 µM (inactive)
- GI50 (SF-295): > 100 µM (inactive)
- GI50 (NCI-H226): > 100 µM (inactive)
- GI50 (M14): > 100 µM (inactive)
